Measurements from patent publication US11208405B2, “Pyrrole derivatives as PLK1 inhibitors” (SENTINEL ONCOLOGY LIMITED, priority 2017, dated 2021).
Structures can show the parent of a compound that is named as a salt.

How the values were obtained:
[1] = system: glioblastoma cell line 909750; experiment: Glioblastoma cancer cell viability, cell line 909750; type: cell-based
Procedure: (§1) Assay to Measure the Effects of Compounds of the Invention on Glioblastoma Cancer Cell Viability
(§2) The compound of Example 33 was tested for inhibitory activity against the glioblastoma cell lines in Table 7 below.

HCT116 xenograft tumours = experiment: In vivo anti-cancer activity in mice bearing HCT116 tumours; settings: oral 50 mg/kg or 200 m/kg on days 1, 3, 7, 10 and 13, dose of the T/C value not stated
Procedure: In Vivo Anti-Cancer Activity in Mice Bearing HCT116 Tumours
Mice bearing HCT116 xenograft tumours were give oral dosages of either 50 mg/kg or […] on days 1, 3, 7, 10 and 13 and the tumour volumes measured at days 1, 3, 5, 8, 10, 12 and 15. Tumour volumes in a control group of tumour-bearing mice, who had received vehicle only at the same time points were also measured.

phospho-histone H3 = experiment: Western blotting of tumours 24 hours after a single dose; type: in vivo; settings: mice with established tumours
Procedure: In a separate experiment, eight mice with established tumours were treated with the compound of Example 33 and euthanised 24 hours after administration of a single dose.

NEK9 = biological target: T1, NEK9 (Homo sapiens, UniProt Q8TD19); experiment: Kinase selectivity assay (DiscoverX KinomeScreen), NEK9; type: binding; settings: NEK9, 5 μM; read-out: % Control
T1 construct: purchased DiscoverX
Procedure: (§3) The compound of Example 33 was tested for off-target activity against a panel of fifty five kinases bearing functional or structural similarity to PLK1 at a concentration of 5 μM using the DiscoverX KinomeScreen assay.

CAMKK1 = biological target: T2, CAMKK1 (Homo sapiens, UniProt Q8N5S9); experiment: Kinase selectivity assay (DiscoverX KinomeScreen), CAMKK1; type: binding; settings: CAMKK1, 5 μM; read-out: % Control
T2 construct: purchased DiscoverX
Procedure: as §3

STK35 = biological target: T3, STK35 (Homo sapiens, UniProt Q8TDR2); experiment: Kinase selectivity assay (DiscoverX KinomeScreen), STK35; type: binding; settings: STK35, 5 μM; read-out: % Control
T3 construct: purchased DiscoverX
Procedure: as §3

PLK4 = biological target: T4, PLK4 (Homo sapiens, UniProt O00444); experiment: Kinase selectivity assay (DiscoverX KinomeScreen), PLK4; type: binding; settings: PLK4, 5 μM; read-out: % Control
T4 construct: purchased DiscoverX
Procedure: as §3

[2] = system: glioblastoma cell line 905984; experiment: Glioblastoma cancer cell viability, cell line 905984; type: cell-based
Procedure: as §1, §2

TTK = biological target: T5, TTK (Homo sapiens, UniProt P33981); experiment: Kinase selectivity assay (DiscoverX KinomeScreen), TTK; type: binding; settings: read-out: % Control
T5 construct: purchased DiscoverX
Procedure: as §3

EIF2AK4 = experiment: Kinase selectivity assay (DiscoverX KinomeScreen), EIF2AK4; type: binding; settings: EIF2AK4, 5 μM
Procedure: as §3

[3] = system: glioblastoma cell line 949094; experiment: Glioblastoma cancer cell viability, cell line 949094; type: cell-based
Procedure: as §1, §2

TLK2 = biological target: T6, TLK2 (Homo sapiens, UniProt Q86UE8); experiment: Kinase selectivity assay (DiscoverX KinomeScreen), TLK2; type: binding; settings: TLK2, 5 μM; read-out: % Control
T6 construct: purchased DiscoverX
Procedure: as §3

AURKC = biological target: T7, AURKC (Homo sapiens, UniProt Q9UQB9); experiment: Kinase selectivity assay (DiscoverX KinomeScreen), AURKC; type: binding; settings: read-out: % Control
T7 construct: purchased DiscoverX
Procedure: as §3

KRAS G12V HeLa cell line = experiment: Wild-type versus KRAS HeLa cell viability: oncogenic KrasG12V transgene; type: cell-based; settings: Homo sapiens; HeLa cells expressing KRAS G12V, 72 hours
Procedure: (§4) Assay to Measure the Effects of Compounds of the Invention on Wild-Type Versus KRAS HeLa Cell Viability
(§5) Identifying synthetic lethal interactions between targeted small molecule therapies and characterised oncogenic mutations is a goal of modern oncology drug discovery efforts. To this end, PLK1-PBD inhibitors were tested on HeLa cells engineered to inducibly express wild-type or oncogenic KrasG12V transgenes using the FLP-in/T-Rex system (Invitrogen). Cells were plated, and then treated with or without Doxycycline to induce transgene expression, and then treated with serially-diluted PBD inhibitors. After 72 hours of incubation, cell viability was assessed using the Cell Titre Blue reagent (Promega) and a BMG Pherastar plate reader. The effect of PBD inhibition on cell viability with either wild-type or oncogenic G12V KRAS was assessed using the graphing/curve-fitting packages in GraphPad Prism.

WEE2 = biological target: T8, WEE2 (Homo sapiens, UniProt P0C1S8); experiment: Kinase selectivity assay (DiscoverX KinomeScreen), WEE2; type: binding; settings: WEE2, 5 μM; read-out: % Control
T8 construct: purchased DiscoverX
Procedure: as §3

wild-type HeLa cell line = experiment: Wild-type versus KRAS HeLa cell viability: wild-type KRAS transgene; type: cell-based; settings: Homo sapiens; HeLa cells expressing wild-type KRAS, 72 hours; read-out: WT GI50
Procedure: as §4, §5

NEK1 = biological target: T9, NEK1 (Homo sapiens, UniProt Q96PY6); experiment: Kinase selectivity assay (DiscoverX KinomeScreen), NEK1; type: binding; settings: NEK1, 5 μM; read-out: % Control
T9 construct: purchased DiscoverX
Procedure: as §3

[4] = system: glioblastoma cell line 906868; experiment: Glioblastoma cancer cell viability, cell line 906868; type: cell-based
Procedure: as §1, §2

BMP2K = biological target: T10, BMP2K (Homo sapiens, UniProt Q9NSY1); experiment: Kinase selectivity assay (DiscoverX KinomeScreen), BMP2K; type: binding; settings: read-out: % Control
T10 construct: purchased DiscoverX
Procedure: as §3

GAK = biological target: T11, GAK (Homo sapiens, UniProt O14976); experiment: Kinase selectivity assay (DiscoverX KinomeScreen), GAK; type: binding; settings: read-out: % Control
T11 construct: purchased DiscoverX
Procedure: as §3

WNK3 = biological target: T12, WNK3 (Homo sapiens, UniProt Q9BYP7); experiment: Kinase selectivity assay (DiscoverX KinomeScreen), WNK3; type: binding; settings: WNK3, 5 μM; read-out: % Control
T12 construct: purchased DiscoverX
Procedure: as §3

TLK1 = biological target: T13, TLK1 (Homo sapiens, UniProt Q9UKI8); experiment: Kinase selectivity assay (DiscoverX KinomeScreen), TLK1; type: binding; settings: TLK1, 5 μM; read-out: % Control
T13 construct: purchased DiscoverX
Procedure: as §3

DSTYK = biological target: T14, DSTYK (Homo sapiens, UniProt Q6XUX3); experiment: Kinase selectivity assay (DiscoverX KinomeScreen), DSTYK; type: binding; settings: read-out: % Control
T14 construct: purchased DiscoverX
Procedure: as §3

[5] = system: glioblastoma cell line 909905; experiment: Glioblastoma cancer cell viability, cell line 909905; type: cell-based
Procedure: as §1, §2

EIF2AK2 = biological target: T15, EIF2AK2 (Homo sapiens, UniProt P19525); experiment: Kinase selectivity assay (DiscoverX KinomeScreen), EIF2AK2; type: binding; settings: EIF2AK2, 5 μM; read-out: % Control
T15 construct: purchased DiscoverX
Procedure: as §3

[6] = system: glioblastoma cell line 946368; experiment: Glioblastoma cancer cell viability, cell line 946368; type: cell-based
Procedure: as §1, §2

[7] = system: glioblastoma cell line 687586; experiment: Glioblastoma cancer cell viability, cell line 687586; type: cell-based
Procedure: as §1, §2

[8] = system: glioblastoma cell line 908145; experiment: Glioblastoma cancer cell viability, cell line 908145; type: cell-based
Procedure: as §1, §2

CAMKK2 = biological target: T16, CAMKK2 (Homo sapiens, UniProt Q96RR4); experiment: Kinase selectivity assay (DiscoverX KinomeScreen), CAMKK2; type: binding; settings: CAMKK2, 5 μM; read-out: % Control
T16 construct: purchased DiscoverX
Procedure: as §3

WEE1 = biological target: T17, WEE1 (Homo sapiens, UniProt P30291); experiment: Kinase selectivity assay (DiscoverX KinomeScreen), WEE1; type: binding; settings: WEE1, 5 μM; read-out: % Control
T17 construct: purchased DiscoverX
Procedure: as §3

[9] = system: glioblastoma cell line 907271; experiment: Glioblastoma cancer cell viability, cell line 907271; type: cell-based
Procedure: as §1, §2

T6 sequence (Q86UE8 whole entry): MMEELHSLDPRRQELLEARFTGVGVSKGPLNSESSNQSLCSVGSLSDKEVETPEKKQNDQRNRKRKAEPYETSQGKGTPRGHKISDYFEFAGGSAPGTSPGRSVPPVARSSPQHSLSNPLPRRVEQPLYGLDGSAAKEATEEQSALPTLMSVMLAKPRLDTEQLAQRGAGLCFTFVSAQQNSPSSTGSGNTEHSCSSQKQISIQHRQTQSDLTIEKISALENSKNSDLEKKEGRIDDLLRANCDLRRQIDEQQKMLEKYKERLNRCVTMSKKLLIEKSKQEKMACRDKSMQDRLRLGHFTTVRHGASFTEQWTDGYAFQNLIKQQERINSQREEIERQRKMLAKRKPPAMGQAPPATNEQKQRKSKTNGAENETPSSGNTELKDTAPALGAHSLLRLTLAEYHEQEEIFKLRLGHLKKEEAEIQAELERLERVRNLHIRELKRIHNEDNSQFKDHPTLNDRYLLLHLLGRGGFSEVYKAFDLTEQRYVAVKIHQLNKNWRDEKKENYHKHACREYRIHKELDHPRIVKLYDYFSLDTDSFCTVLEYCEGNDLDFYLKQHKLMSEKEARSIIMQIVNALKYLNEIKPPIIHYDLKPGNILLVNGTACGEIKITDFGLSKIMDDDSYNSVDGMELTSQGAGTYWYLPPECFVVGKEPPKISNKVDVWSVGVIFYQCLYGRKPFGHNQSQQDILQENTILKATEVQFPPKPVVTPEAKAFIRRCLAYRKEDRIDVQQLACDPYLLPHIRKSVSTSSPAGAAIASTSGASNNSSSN
T7 sequence (Q9UQB9 whole entry): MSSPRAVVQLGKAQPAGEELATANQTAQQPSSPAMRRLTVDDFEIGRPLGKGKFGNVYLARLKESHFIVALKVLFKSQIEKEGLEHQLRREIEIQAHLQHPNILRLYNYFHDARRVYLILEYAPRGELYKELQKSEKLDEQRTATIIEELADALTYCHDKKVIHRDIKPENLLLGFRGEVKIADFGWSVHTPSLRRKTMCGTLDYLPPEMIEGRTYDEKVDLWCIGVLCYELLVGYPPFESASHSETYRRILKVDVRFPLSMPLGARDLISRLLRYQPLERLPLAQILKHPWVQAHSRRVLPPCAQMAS
T10 sequence (Q9NSY1 whole entry): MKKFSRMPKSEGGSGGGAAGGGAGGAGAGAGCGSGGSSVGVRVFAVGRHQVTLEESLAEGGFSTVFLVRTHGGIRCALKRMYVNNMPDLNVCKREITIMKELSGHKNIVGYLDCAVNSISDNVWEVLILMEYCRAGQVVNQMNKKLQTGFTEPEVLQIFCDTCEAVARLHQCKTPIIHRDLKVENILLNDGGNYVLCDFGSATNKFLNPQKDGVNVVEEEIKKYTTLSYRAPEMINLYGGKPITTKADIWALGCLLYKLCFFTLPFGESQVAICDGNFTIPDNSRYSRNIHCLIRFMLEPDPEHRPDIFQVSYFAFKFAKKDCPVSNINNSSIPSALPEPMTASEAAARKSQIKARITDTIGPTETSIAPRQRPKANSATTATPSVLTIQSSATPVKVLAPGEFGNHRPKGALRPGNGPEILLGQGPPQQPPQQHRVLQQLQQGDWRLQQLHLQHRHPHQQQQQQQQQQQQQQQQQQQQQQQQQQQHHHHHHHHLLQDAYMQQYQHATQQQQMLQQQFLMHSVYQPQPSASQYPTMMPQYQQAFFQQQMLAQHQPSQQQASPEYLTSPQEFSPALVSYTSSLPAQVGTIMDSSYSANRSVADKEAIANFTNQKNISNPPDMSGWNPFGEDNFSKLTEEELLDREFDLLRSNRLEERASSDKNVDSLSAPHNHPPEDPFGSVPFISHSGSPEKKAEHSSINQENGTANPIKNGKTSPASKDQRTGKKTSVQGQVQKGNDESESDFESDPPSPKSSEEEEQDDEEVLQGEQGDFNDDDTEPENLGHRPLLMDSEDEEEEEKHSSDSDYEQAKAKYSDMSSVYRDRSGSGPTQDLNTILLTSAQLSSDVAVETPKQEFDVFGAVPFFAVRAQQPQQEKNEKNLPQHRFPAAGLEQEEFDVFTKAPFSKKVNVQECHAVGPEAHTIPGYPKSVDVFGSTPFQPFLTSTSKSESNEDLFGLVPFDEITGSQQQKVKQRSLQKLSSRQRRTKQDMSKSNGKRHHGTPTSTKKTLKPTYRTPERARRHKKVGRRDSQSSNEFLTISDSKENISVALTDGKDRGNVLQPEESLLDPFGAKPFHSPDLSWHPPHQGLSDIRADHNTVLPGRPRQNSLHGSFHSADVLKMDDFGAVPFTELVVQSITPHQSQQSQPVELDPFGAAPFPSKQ
T13 sequence (Q9UKI8 whole entry): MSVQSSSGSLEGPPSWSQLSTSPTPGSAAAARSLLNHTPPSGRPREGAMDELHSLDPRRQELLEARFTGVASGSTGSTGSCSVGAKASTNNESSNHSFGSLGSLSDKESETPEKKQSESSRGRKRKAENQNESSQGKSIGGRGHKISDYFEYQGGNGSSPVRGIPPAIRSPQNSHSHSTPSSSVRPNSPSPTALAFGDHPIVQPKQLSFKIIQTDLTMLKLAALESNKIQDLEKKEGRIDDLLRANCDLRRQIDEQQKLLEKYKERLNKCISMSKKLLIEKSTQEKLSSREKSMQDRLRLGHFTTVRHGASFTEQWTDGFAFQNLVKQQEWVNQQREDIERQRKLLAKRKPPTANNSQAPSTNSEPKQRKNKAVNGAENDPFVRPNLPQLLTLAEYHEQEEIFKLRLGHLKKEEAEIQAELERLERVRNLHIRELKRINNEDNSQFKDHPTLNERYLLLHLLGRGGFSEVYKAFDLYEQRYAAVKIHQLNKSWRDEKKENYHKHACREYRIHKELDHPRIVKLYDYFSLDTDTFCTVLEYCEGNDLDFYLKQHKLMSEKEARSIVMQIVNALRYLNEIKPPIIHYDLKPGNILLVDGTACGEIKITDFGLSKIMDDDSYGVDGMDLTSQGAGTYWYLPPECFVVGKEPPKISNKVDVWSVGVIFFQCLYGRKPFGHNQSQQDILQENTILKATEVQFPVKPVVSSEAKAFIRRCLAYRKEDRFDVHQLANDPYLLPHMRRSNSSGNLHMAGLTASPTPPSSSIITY
T14 sequence (Q6XUX3 whole entry): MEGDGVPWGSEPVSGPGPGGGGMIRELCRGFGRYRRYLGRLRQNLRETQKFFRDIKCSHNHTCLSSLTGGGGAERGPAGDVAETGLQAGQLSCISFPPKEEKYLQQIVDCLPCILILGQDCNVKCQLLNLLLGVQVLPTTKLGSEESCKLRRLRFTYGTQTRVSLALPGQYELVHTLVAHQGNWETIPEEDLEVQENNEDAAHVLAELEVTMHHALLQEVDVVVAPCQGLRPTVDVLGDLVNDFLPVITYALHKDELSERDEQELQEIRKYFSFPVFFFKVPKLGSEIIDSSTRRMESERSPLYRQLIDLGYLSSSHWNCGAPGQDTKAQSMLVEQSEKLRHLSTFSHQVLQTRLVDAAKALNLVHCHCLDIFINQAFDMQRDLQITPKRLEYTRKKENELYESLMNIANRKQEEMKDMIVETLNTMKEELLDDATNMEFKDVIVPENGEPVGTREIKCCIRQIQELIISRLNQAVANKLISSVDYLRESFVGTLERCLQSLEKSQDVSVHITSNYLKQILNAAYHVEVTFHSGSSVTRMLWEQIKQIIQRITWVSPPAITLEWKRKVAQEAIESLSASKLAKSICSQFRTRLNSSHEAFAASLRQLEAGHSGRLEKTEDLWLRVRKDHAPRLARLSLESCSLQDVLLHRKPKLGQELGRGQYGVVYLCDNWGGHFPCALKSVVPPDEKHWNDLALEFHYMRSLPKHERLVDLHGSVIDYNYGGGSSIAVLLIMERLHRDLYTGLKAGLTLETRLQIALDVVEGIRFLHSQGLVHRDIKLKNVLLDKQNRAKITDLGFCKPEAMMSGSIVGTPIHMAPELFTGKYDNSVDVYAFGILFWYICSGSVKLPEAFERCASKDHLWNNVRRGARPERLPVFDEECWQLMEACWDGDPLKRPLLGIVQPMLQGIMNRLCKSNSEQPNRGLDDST
T16 sequence (Q96RR4 whole entry): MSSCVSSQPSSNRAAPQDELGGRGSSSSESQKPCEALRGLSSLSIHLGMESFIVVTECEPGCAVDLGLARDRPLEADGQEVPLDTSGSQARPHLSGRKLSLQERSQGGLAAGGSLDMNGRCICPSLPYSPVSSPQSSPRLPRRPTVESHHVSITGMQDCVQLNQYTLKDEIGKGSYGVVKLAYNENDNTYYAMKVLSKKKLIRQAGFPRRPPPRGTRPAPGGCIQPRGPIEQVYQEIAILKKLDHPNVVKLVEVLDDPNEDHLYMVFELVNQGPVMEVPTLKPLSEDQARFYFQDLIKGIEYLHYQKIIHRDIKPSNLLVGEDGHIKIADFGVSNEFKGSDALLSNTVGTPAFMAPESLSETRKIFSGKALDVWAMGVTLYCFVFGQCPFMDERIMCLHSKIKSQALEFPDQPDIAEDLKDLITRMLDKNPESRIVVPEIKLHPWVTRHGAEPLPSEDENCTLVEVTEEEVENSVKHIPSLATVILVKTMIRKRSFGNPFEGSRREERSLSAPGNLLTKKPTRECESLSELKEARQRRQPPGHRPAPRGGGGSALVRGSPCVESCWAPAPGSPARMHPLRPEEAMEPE
T15 sequence (P19525 whole entry): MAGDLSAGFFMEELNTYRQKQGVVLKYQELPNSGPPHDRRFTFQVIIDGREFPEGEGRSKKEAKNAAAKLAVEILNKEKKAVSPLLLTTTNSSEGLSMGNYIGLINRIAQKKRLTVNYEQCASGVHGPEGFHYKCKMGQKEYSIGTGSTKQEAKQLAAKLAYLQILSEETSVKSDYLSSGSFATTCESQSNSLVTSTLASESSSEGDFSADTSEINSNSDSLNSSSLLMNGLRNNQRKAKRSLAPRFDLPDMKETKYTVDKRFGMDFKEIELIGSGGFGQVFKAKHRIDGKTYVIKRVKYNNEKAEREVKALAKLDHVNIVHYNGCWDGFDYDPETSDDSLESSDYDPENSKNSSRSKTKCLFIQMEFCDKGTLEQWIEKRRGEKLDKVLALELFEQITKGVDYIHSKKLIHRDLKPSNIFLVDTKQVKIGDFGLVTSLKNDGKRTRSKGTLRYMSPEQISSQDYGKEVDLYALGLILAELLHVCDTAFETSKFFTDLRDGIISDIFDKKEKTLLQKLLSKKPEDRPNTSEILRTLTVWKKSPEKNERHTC

With `CN(C)CCNC(=O)c1ccc(-c2ccc(-c3ccc(Cl)cc3)n2-c2ccccc2C(F)(F)F)cc1` [Example 33, 4-[5-(4-chlorophenyl)-1-[2-(trifluoromethyl)phenyl]pyrrol-2-yl]-N-[2-(dimethylamino)ethyl]benzamide Hydrochloride] the IC50 [1] was 0.929 µM, the “effect on tumour growth (T/C)” value (HCT116 xenograft tumours) was 48% and the “phospho-histone H3 in tumours (Western blotting)” value (phospho-histone H3) was “clear induction of phospho-histone H3”. For the same compound, the remaining activity at 5 µM (NEK9) was 92%, the remaining activity at 5 µM (CAMKK1) was 91% and the remaining activity at 5 µM (STK35) was 71%. The remaining activity at 5 µM (PLK4) was 90%, the IC50 [2] was 0.241 µM and the remaining activity at 5 µM (TTK) was 83%. For the same compound, the “% Control” value (EIF2AK4) was 97%, the IC50 [3] was 0.709 µM and the remaining activity at 5 µM (TLK2) was 94%. It also gave a remaining activity at 5 µM (AURKC) of 85%, a GI50 (KRAS G12V HeLa cell line) of 0.01 µM and a remaining activity at 5 µM (WEE2) of 92%. For the same compound, the GI50 (wild-type HeLa cell line) was 0.02 µM, the remaining activity at 5 µM (NEK1) was 100% and the IC50 [4] was 0.252 µM. The remaining activity at 5 µM (BMP2K) was 85%, the remaining activity at 5 µM (GAK) was 100% and the remaining activity at 5 µM (WNK3) was 100%. The remaining activity at 5 µM (TLK1) was 99%, the remaining activity at 5 µM (DSTYK) was 75% and the IC50 [5] was 0.276 µM. It also gave a remaining activity at 5 µM (EIF2AK2) of 90%, an IC50 [6] of 1.4 µM and an IC50 [7] of 0.489 µM. For the same compound, the IC50 [8] was 0.223 µM, the remaining activity at 5 µM (CAMKK2) was 97% and the remaining activity at 5 µM (WEE1) was 98%. It also gave an IC50 [9] of 2.06 µM.
